Data reported in the METLIN SMRT retention time set (Domingo-Almenara et al. 2019).

Assay: gradient 5% acetonitrile 3 min, to 50% in 2 min, to 85% in 15 min, held 3 min, 100 µL/min
Conditions: column: Zorbax Extend-C18 2.1 x 50 mm; eluents: water / acetonitrile, 0.1% formic acid
How it was run: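 The system's dead and dwell volumes were 40 μL and 900 μL, with a Zorbax Extend-C18 column (2.1 × 50 mm, 1.8 μm) run at 100 μL/min in water and acetonitrile containing 0.1% formic acid each. Pure standards were analyzed in mixtures of ~100 molecules by HPLC–quadrupole time-of-flight mass spectrometry in positive and negative ionization mode. Retention time was assigned from computationally picked, manually inspected adduct peaks.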

| SMILES | RP-LC retention time |
| --- | --- |
| COc1cccc(CNC2CCN(c3ccc(C(=O)NC4CC4)cn3)C2)c1 (stereo not given) | 547 s |
| COc1ccc(N2CCN(C(=O)Cn3ncc4c(c3=O)N(C)C(=O)CS4)CC2)cc1 | 635 s |
| CCCNC(=O)C1CCN(c2cc(SCC(=O)Nc3ccc(OC)cc3)ncn2)CC1 | 692 s |
| CCc1nc2cc(-c3noc(Cc4cccc(C(F)(F)F)c4)n3)ccc2o1 | 1170 s |
| O=C(NCc1ccccc1)C1CC(=O)N(c2n[nH]c3cccc(F)c23)C1 (stereo not given) | 684 s |
| Cc1cc(C)c(S(=O)(=O)N2CCCC2c2nc(-c3ccccc3)no2)cc1C (stereo not given) | 1260 s |
| C=C1C(=O)OCC2C(C(=O)O)=CC3C(C)C(C)=CC123 (stereo not given) | 730 s |
| Cc1ccc(N2N=C(C(=O)N3CCN(C(C)C)CC3)S(=O)(=O)c3cccnc32)cc1 | 649 s |
| Cc1ccccc1C1CC(=O)c2c(C)nc(N3CCN(CCO)CC3)nc2C1 (stereo not given) | 656 s |
| CCCc1cc(N2CCN(C(=O)c3cc(OC)cc(OC)c3)CC2)nc2nncn12 | 576 s |
| O=C(NCCCn1nc(-c2ccc(Cl)cc2)ccc1=O)C1CCCC1 | 798 s |
| Cc1nnc(-c2ccc(S(=O)(=O)N3CCN(C4CCCCC4)CC3)o2)o1 | 622 s |
| Cc1ccccc1CC(=O)NCc1ccc2c(c1)ncn2C(C)C | 618 s |
| COc1cccc(Cn2cc(C(=O)c3cc(C)ccc3C)c(=O)c3ccc(C)nc32)c1 | 1060 s |
| Cc1cnc(C(=O)N[C@@H]2CCC[C@@H]2C(=O)N2CCSCC2)cn1 | 633 s |
| Cc1cc(NS(=O)(=O)c2cc3n(c2)CCCN(C)C3=O)ccc1F | 696 s |
| Cc1ccc(Nc2ncccc2C(=O)O)cc1C | 707 s |
| Cn1c(C(=O)NCCc2c[nH]c3ccccc23)cc2sccc21 | 916 s |

| SMILES | RP-LC retention time |
| --- | --- |
| COc1ccc(-c2nnc(-c3cc(S(=O)(=O)NCc4cccs4)ccc3Cl)o2)cc1 | 1040 s |
| Cc1cc(N2CCN(C(=O)Nc3ccccc3F)CC2)nc(N2CCOCC2)n1 | 617 s |
| COc1cc(OC)c(NC(=O)N2CCCC(C)(C(=O)NCc3ccc(C)cc3)C2)cc1Cl (stereo not given) | 971 s |
| CCCn1c(=O)c2cc(C(=O)N3CCN(Cc4ccccc4)CC3)nn2c2ccccc21 | 590 s |
| Cc1ccc2c(c1)N(C(=O)Cn1c(C(C)C)nc3c(c1=O)CCN(Cc1ccccc1)C3)CCO2 | 787 s |
| COC(=O)[C@H]1[C@H]2C[C@H]3c4[nH]c5cc(OC)ccc5c4CCN3C[C@H]2C[C@@H](OC(=O)c2cc(OC)c(OC)c(OC)c2)[C@@H]1OC | 913 s |
| Fc1ccc(-c2noc(Cc3nc(-c4ccc(Br)cc4)cs3)n2)cc1 | 1340 s |
| CCc1cccc(C)c1Nc1c(-c2ccc(SC)cc2)nc2cnccn12 | 1070 s |
| CCc1cc(=O)n(CC(=O)Nc2cc(OC)cc(OC)c2)c(N2CCOCC2)n1 | 738 s |
| O=C1NCCCn2nc(C3CCN(C(=O)Nc4cccc(C(F)(F)F)c4)CC3)cc21 | 721 s |
| CC1CC(C)CN(CCCNC(=O)Cn2ncc3c4ccccc4n(C)c3c2=O)C1 (stereo not given) | 659 s |
| Cc1cccc(NC(=O)N2CCC(N3CCN(Cc4ccccc4)C(=O)C3=O)CC2)c1C | 730 s |
| CCN(CC)CCn1c(NCc2ccc(C)cc2)nc2ccccc21 | 584 s |
| Cn1cnc(S(=O)(=O)N2CCC(C(=O)Nc3cccc(Cl)c3)CC2)c1 | 753 s |
| Cc1nn(CC(=O)N2CCN(C(C)C)CC2)c(=O)c2nc(-c3ccccc3)sc12 | 620 s |
| O=C(NC1CC1)C1CCN(c2nc3ncn(CC(=O)N4CCc5ccccc5C4)c(=O)c3s2)CC1 | 674 s |
| CC(C)Oc1ccc(-c2noc(Cn3c(=O)n(-c4ccccc4F)c(=O)c4sccc43)n2)cc1 | 1090 s |
